Results as given in patent US11247994B2, “6-dithio-substituted-2′-deoxyguanosine compound, preparation method thereof and use thereof” (ZHEJIANG UNIVERSITY, priority 2018, dated 2022).

Tests used:
[1] = system: human liver cancer cells HepG2; test: MTT assay, tumor cell growth inhibition, HepG2; format: cell-based; conditions: 48 hours
Excerpt: (§1) MTT Assay—Inhibitory Effect of 6-dithio-substituted-2′-deoxyguanosine Derivatives on Tumor Cell Growth
(§2) We measured the tumor cell growth inhibitory activity of candidate compounds by MTT assay. Human tumor cells in logarithmic growth phase were digested with 0.25% pancreatin for a certain time, centrifuged, re-suspended and counted with a blood cell counting plate to prepare a cell suspension, and the cell suspension was adjusted to 1.0×10^4-1×10^5 cells/mL. The cell suspension was inoculated into a 96-well culture plate, 100 μL per well, and cultured in an incubator with saturated humidity, 37° C. and 5% CO2 for 24 hours until the cells completely adhered to the wall. The test compound was diluted to the required concentration with a complete medium, the complete medium of the 96-well culture plate inoculated with human tumor cells was sucked out, a medicament-containing medium was added, 100 μL per well, the final concentration of DMSO was less than 0.1%, and the culture plate was put in an incubator for 48 hours. 10 μl of MTT was added to each well of the 96-well plate, and the culture was continued for 4 h. The culture was stopped and the culture solution in the well was carefully sucked off. 150 μL DMSO was added to each well, and shaken at a low speed for 10 min on a shaking table, so that the crystal was fully dissolved. The absorbance of each well was measured at OD 570 nm of an enzyme-linked immunosorbent assay instrument. At the same time, zeroing wells (the culture medium, MTT, dimethyl sulfoxide) and control wells (cells, a drug dissolution medium with the same concentration, a culture solution, MTT, dimethyl sulfoxide) were set up, and the cell growth inhibitory activity was calculated with the corresponding solvents as the control. 3-6 multiple wells in each group were set up with repetition of several times. Cell viability of control=(Adrug group−Azeroing well)/(Acontrol well−Azeroing well)*100%. Drawing was drawn, the data were fitted into a concentration response curve with a variable slope, and IC50 value was calculated from the curve.

[2] = system: human colon cancer cells SW620; test: MTT assay, tumor cell growth inhibition, SW620; format: cell-based; conditions: SW-620, 48 hours
Excerpt: as §1, §2

[3] = system: human melanoma cells A375; test: MTT assay, tumor cell growth inhibition, A375; format: cell-based; conditions: A-375, 48 hours
Excerpt: as §1, §2

[4] = system: human gastric cancer cells BGC; test: MTT assay, tumor cell growth inhibition, BGC; format: cell-based; conditions: 48 hours
Excerpt: as §1, §2

TrxR/Trx-1 = biological target: T1, TrxR/Trx-1 (Homo sapiens, UniProt P10599); test: Ellman test, inhibition of TrxR/Trx-1 activity; format: biochemical; conditions: Ellman reaction, 37° C. 30 min, absorbance 412 nm; read-out: IC50, inhibition of TrxR/Trx-1 activity
T1 sequence (P10599 2-105 limits assumed): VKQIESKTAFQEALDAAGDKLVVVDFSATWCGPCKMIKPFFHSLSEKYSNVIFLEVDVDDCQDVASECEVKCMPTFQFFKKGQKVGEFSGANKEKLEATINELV
Excerpt: Ellman Test—Inhibitory Effect of 6-dithio-substituted-2′-deoxyguanosine Derivative Analogues on TrxR/Trx-1 Activity
A TrxR/TR experiment based on the Ellman reaction was used to determine the inhibitory activity of candidate compounds. Ellman reaction is that 5,5′-dithiobis (2-nitrobenzoic acid) (DTNB) reacts with sulfhydryl (—SH) to form a yellow substance with absorption at 412 nm. The increase of absorption can be equivalent to the decrease of NADPH mediated by TrxR, thus further judging the activity of TrxR/Trx-1. All experiments were carried out on 96-well plates. Before the start of the enzyme reaction, five groups of corresponding test compound stock solutions with different concentrations were prepared. In the TrxR/Trx-1 reaction, a total volume per well was 60 μL, including 100 mM HEPES, 5 mM EDTA (HE buffer, pH 7.5), 1 mM NADPH, 1.0 μM TrxR, 0.8 μM Trx-1, 2.5 mg/mL bovine insulin and the required concentration of compounds to be tested. No compound to be tested was added to the control group. No compound to be tested, TrxR and Trx-1 were added in the blank group. The plate was shaken on an oscillator for 30 seconds to fully mix the reactants. After incubation at 37° C. for 30 min, 100 μL of the prepared mixture containing 6 M guanidine hydrochloride, 50 mm Tris and 10 mm DTNB was added to terminate the reaction. After 15 minutes of incubation, the absorbance was measured at 412 nm. Finally, TrxR/Trx-1 activity %=(Atest−Akb)/(Acontrol−Akb), that is, the relative percentage of TrxR/Trx-1 activity was the activity inhibited by adding 2′-deoxyguanosine derivatives relative to the activity without 2′-deoxyguanosine derivatives. The data were fitted into a concentration response curve with a variable slope, and the IC50 value was calculated from the curve.

[5] = Blood biochemical analysis and HE staining of tissues in HCT116 tumor-bearing nude mice; format: in vivo; conditions: tail vein once every two days, 12 times, blood 48 hours after the last treatment
Description: (§3) We took human colon cancer cell line HCT116 as the research object, and established a subcutaneous transplanted tumor model of human colon cancer in 32 immunodeficient nude mice. The 24th generation HCT116 cells in logarithmic growth phase were digested with pancreatin to prepare a single-cell suspension, and 1×10^7 cells were inoculated subcutaneously in the right armpit of male nude mice about 5 weeks old. After inoculation, cyclophosphamide (100 mg/kg) was injected intraperitoneally for two consecutive days. […] On the 20th day after colon cancer cell HCT116 was implanted subcutaneously, nude mice were divided into 7 groups by a random number table method, including a test drug group, a positive control group and a blank control group. Specifically, group A: the compound A was administrated; Group B: the compound B was administrated; Group C: the compound C was administrated; Group D: the compound D was administrated; Group E: the compound 6-thio-DG was administrated; Group F: the compound PX-12 was administrated; Group G: blank group, without administration of any compound. Except group C with 3 rats and group G with 4 rats, all other 5 groups had 5 rats, they mice were labeled and injected by tail vein once every two days for 24 days, 12 times, with the dose of compound A being 2 mg/kg for the first 8 times and 10 mg/kg for the last 4 times, and the dosages of other drugs being the same molar weights. The tumor volume was calculated by taking the length of the tumor as the longest diameter and the width as the corresponding vertical diameter, and the tumor volume V=(length×width^2) mm^3/2. 48 hours after the last treatment, blood was taken from the eyes, and then the animals were killed. Blood was centrifuged to get the supernatant, and then blood biochemical analysis was performed. Paraffin embedded sections of fixed tissues were stained with HE. The tumor mass in a frozen tissue was sectioned in a frozen state, and then stained by DAPI and TUNEL to judge the apoptosis of the tumor tissue in nude mice.

[6] = system: human leukemia cells K562; test: MTT assay, tumor cell growth inhibition, K562; format: cell-based; conditions: 48 hours
Excerpt: as §1, §2

[7] = system: human non-small cell lung cancer A549; test: MTT assay, tumor cell growth inhibition, A549; format: cell-based; conditions: 48 hours
Excerpt: as §1, §2

NCM460 = test: MTT assay, cell growth inhibition, NCM460; format: cell-based; conditions: Homo sapiens, 48 hours, read-out: Tumor cell growth inhibition IC50, NCM460
Excerpt: as §1, §2

[8] = system: human colon cancer cells HT29; test: MTT assay, tumor cell growth inhibition, HT29; format: cell-based; conditions: HT-29, 48 hours
Excerpt: as §1, §2

[9] = system: human breast cancer cells Bcap37; test: MTT assay, tumor cell growth inhibition, Bcap37; format: cell-based; conditions: 48 hours
Excerpt: as §1, §2

[10] = system: human colon cancer cell line HCT116 subcutaneous transplanted tumor; test: Tumor-bearing test in nude mice, HCT116 subcutaneous transplanted tumor (tumor volume, TUNEL); format: in vivo; conditions: HCT116 model; for Extent of apoptosis in tumor tissue (TUNEL staining, rank order): frozen tumor sections, DAPI and TUNEL, G group = blank; for Inhibitory effect on the growth of subcutaneous transplanted tumor tissue in nude mice (rank order, from slope of tumor volume): compound A 2 mg/kg first 8 times, 10 mg/kg last 4 times, others equimolar, KB = blank
Excerpt: Tumor-Bearing Test in Nude Mice—Inhibitory Effect of 6-Dithio-Substituted-2′-Deoxyguanosine Derivatives on the Growth of Subcutaneous Transplanted Tumor Tissue in Nude Mice
1) Tumor-Bearing Mouse Model of Human Colon Cancer Cell Line HCT116
as §3

[11] = system: human colon cancer cells HCT116; test: MTT assay, tumor cell growth inhibition, HCT116; format: cell-based; conditions: HCT-116, 48 hours
Excerpt: as §1, §2

[12] = system: human breast cancer cells MCF7; test: MTT assay, tumor cell growth inhibition, MCF7; format: cell-based; conditions: 48 hours
Excerpt: as §1, §2

[13] = tail vein once every two days for 24 days

Row | IC50 [1] [µM] | IC50 [2] [µM] | IC50 [3] [µM] | IC50 [4] [µM] | IC50 (TrxR/Trx-1) [µM] | Alanine aminotransferase [5] [U/L] | Albumin [5] [g/L] | Alkaline phosphatase [5] [U/L] | Aspartate aminotransferase [5] [U/L] | BUN [5] [mmol/L] | Chloride ion [5] [mmol/L] | Creatine kinase [5] [U/L] | Creatinine [5] [µmol/L] | Glucose [5] [mmol/L] | Potassium ion [5] [mmol/L] | Sodium ion [5] [mmol/L] | Total bilirubin [5] [µmol/L] | Total cholesterol [5] [mmol/L] | Total protein [5] [g/L] | Triglyceride [5] [mmol/L] | SMILES | other results
1 | 10 to 50 | 0.21 | 0.6 | 6.09 | 31.7 | 33.3 | 24.8 | 36.0 | 153.4 | 10.7 | 113.8 | 1896 | -0.80 | 2.21 | 7.56 | 155.6 | 0.40 | 2.99 | 52.6 | 0.84 | CCC(C)SSc1nc(N)nc2c1ncn2C1C[C@H](O)[C@@H](CO)O1 (stereo partly shown) [Compound A, 6-(sec-butyldithio)-2′-deoxyguanosine] | IC50 [6]: 9.88 µM; IC50 [7]: 30.8 µM; IC50 (NCM460): > 1000 µM; IC50 [8]: 4.55 µM; IC50 [9]: 18.2 µM; Extent of apoptosis in tumor tissue (TUNEL staining, rank order) [10]: D group>A group≈B group≈E group (6-thio-dG group)>C group>F group (PX-12 group)>G group (KB group); Inhibitory effect on the growth of subcutaneous transplanted tumor tissue in nude mice (rank order, from slope of tumor volume) [10, 13]: D>B≈A≈6-thio-dG>PX-12>C>KB; Ability to inhibit the growth of transplanted tumor tissue compared with positive controls ([10]; tail vein once every two days for 24 days, equimolar doses): close to that of the positive control 6-thio-dG and stronger than that of the positive control PX-12; IC50 [11]: 1.27 µM
2 | < 10 | > 100 | 0.4 | > 100 | > 100 | 44.3 | 29.8 | 49.6 | 172.4 | 11.5 | 120.8 | 2125 | 12.0 | 3.12 | 7.18 | 158.8 | -0.10 | 2.62 | 51.8 | 1.10 | Nc1nc2c(ncn2[C@H]2C[C@H](O)[C@@H](CO)O2)c(=S)[nH]1 [Compound 6-thio-dG, 6-thio-2′-deoxyguanosine, reference compound] | IC50 [6]: 23.3 µM; IC50 [12]: > 100 µM; IC50 [7]: 33.6 µM; IC50 (NCM460): > 1000 µM; IC50 [8]: 3.04 µM; IC50 [9]: > 100 µM; Extent of apoptosis in tumor tissue (TUNEL staining, rank order) [10]: D group>A group≈B group≈E group (6-thio-dG group)>C group>F group (PX-12 group)>G group (KB group); Inhibitory effect on the growth of subcutaneous transplanted tumor tissue in nude mice (rank order, from slope of tumor volume) [10, 13]: D>B≈A≈6-thio-dG>PX-12>C>KB; IC50 [11]: 17.5 µM
